Laboratory results: patent publication US7083667B2, “Colorant compound, ink, ink tank, recording unit, recording apparatus and recording process” (Canon Kabushiki Kaisha, priority 2004, dated 2006)

Test: Determination of solubility in chloroform at room temperature
Assay type: physicochemical
Details: for Solubility in chloroform (in words): nonpolar solvent; for Solubility: in chloroform, room temperature
Procedure: Determination of Solubility
With respect to Colorant Compounds (5) to (16) obtained above, solubility in chloroform at room temperature was determined.

Row | Solubility in chloroform (in words) | Solubility [% by mass] | Compound
1 | not dissolved |  | Cc1cccc(C)c1N=c1ccc2c(-c3ccccc3S(=O)(=O)O)c3ccc(Nc4c(C)ccc(S(=O)(=O)[O-])c4C)cc3oc-2c1.[Na+] [C.I. Acid Red 289, reference compound]
2 | higher solubility | 20.5 | CCOC(=O)c1ccccc1-c1c2cc/c(=N\c3c(C)cccc3C)cc-2oc2cc(Nc3c(C)cccc3C)ccc12 [Compound (6)]
3 |  | 10.7 | CCOC(=O)c1ccccc1-c1c2cc/c(=N\c3c(C)cccc3C)cc-2oc2cc(Nc3c(C)cccc3C)ccc12.Cl [Compound (5)]
